EPA's ToxRefDB 2

How the values were obtained:
[1] = test system: rabbit; conditions: Prenatal developmental toxicity study; new zealand white; Inhalation; Whole-Body; dose end: 18 GD; group: maternal; systemic / in life observation / body weight / body weight gain
[2] = test system: rat; conditions: Prenatal developmental toxicity study; fischer; Inhalation; Whole-Body; dose end: 15 GD; group: maternal; systemic / in life observation / body weight / body weight + systemic / in life observation / body weight / body weight gain + systemic / in…
[3] = test system: rat; conditions: Subchronic oral toxicity in rodents, fischer, Inhalation, Whole-Body, dose end: 13 week, group: systemic
[4] = test system: rat; conditions: Prenatal developmental toxicity study, other, Inhalation, Nose-Only, dose end: 16 GD
[5] = test system: rat; conditions: Sub-acute repeat dose toxicity, other, Inhalation, Nose-Only, dose end: 14 day, group: systemic
[6] = test system: rabbit; conditions: Prenatal developmental toxicity study, new zealand white, Oral, Gavage/Intubation, dose end: 19 GD
[7] = test system: mouse; conditions: Prenatal developmental toxicity study, cd1, Oral, Gavage/Intubation, dose end: 15 GD
[8] = test system: rat; conditions: Subchronic oral toxicity in rodents, fischer, Feed, dose end: 13 week, group: systemic, systemic / clinical chemistry / thyroxine (t4) / thyroxine (t4), total + systemic / in life observation / body weight / body weight + …
[9] = test system: rat; conditions: Prenatal developmental toxicity study, sprague dawley, Oral, Gavage/Intubation, dose end: 15 GD
[10] = test system: rabbit; conditions: Prenatal developmental toxicity study, new zealand white, Oral, Gavage/Intubation, dose end: 19 GD; remark: listed apart in the source
[11] = test system: rat; conditions: Multigenerational reproductive toxicity study, wistar, Oral, Feed, dose end: 2 generation
[12] = test system: rat; conditions: Subchronic inhalation toxicity, sprague dawley, Nose-Only, dose end: 13 week, group: systemic
[13] = test system: rat; conditions: Subchronic dermal toxicity, sprague dawley, Topical, dose end: 90 day, group: systemic, systemic / in life observation / clinical signs / erythema + systemic / in life observation / clinical signs / scabbing + systemic / …
[14] = test system: rat; conditions: Prenatal developmental toxicity study, sprague dawley, Oral, Gavage/Intubation, dose end: 15 GD; remark: listed apart in the source
[15] = systemic / clinical chemistry / alanine aminotransferase (alt/sgpt) / alanine aminotransferase (alt/sgpt) + systemic / clinical chemistry / …
[16] = systemic / in life observation / clinical signs / urogenital staining + systemic / organ weight / kidney / relative to body weight
[17] = group: developmental, developmental / developmental malformation / bone / incomplete ossification + developmental / developmental malformation / bone / short …
[18] = group: maternal, reproductive / reproductive performance / resorptions / resorptions + systemic / in life observation / body weight / body weight + systemic…
[19] = systemic / hematology / leukocyte (wbc) count differential / leukocyte (wbc) + systemic / in life observation / body weight / body weight + …
[20] = group: developmental, developmental / developmental malformation / bone / fused + developmental / developmental malformation / kidney / hydronephrosis + …
[21] = group: maternal, reproductive / reproductive performance / resorptions / resorptions + systemic / in life observation / body weight / body weight gain + …
[22] = group: developmental, developmental / developmental malformation / bone / [other] + developmental / developmental malformation / bone / absent + developmental / …
[23] = group: developmental, systemic / in life observation / body weight / fetal weight
[24] = group: maternal, reproductive / reproductive performance / postimplantation loss / postimplantation loss + reproductive / reproductive performance / …
[25] = group: developmental, developmental / developmental malformation / bone / full supernumerary + developmental / developmental malformation / bone / incomplete …
[26] = group: maternal, systemic / hematology / erythrocyte (rbc) count differential / erythrocyte (rbc) + systemic / hematology / reticulocyte / reticulocyte + …
[27] = group: maternal, reproductive / reproductive performance / aborted / aborted + systemic / in life observation / body weight / body weight + systemic / in …
[28] = group: offspring, systemic / in life observation / body weight / offspring (pup) weight + systemic / organ weight / spleen / absolute + systemic / organ …
[29] = group: parental, systemic / pathology microscopic / stomach / hyperkeratosis + systemic / pathology microscopic / stomach / hyperplasia + systemic / …
[30] = systemic / in life observation / body weight / body weight + systemic / in life observation / clinical signs / [other] + systemic / in life …
[31] = group: developmental, developmental / developmental malformation / kidney / dilatation + developmental / developmental malformation / ureter / distended
[32] = group: maternal, systemic / in life observation / body weight / body weight

`CCCCCCOCCO` [2-(Hexyloxy)ethanol] was tested, and the LEL [1] was 79.2 ppm, the LOAEL [1] was over 79.2 ppm and the NEL [1] was 41.1 ppm. The NOAEL [1] was at least 79.2 ppm, the LEL [2] was 79.2 ppm and the LOAEL [2] was over 79.2 ppm. For the same compound, the NEL [2] was 41.1 ppm, the NOAEL [2] was at least 79.2 ppm and the LOAEL [3, 15] was over 71 ppm. For the same compound, the NOAEL [3, 15] was at least 71 ppm, the LEL [3, 16] was 20 ppm and the NEL [3, 16] was under 20 ppm.

For `COCCOCCOC` [Bis(2-methoxyethyl) ether], the LEL [4, 17] was 25 ppm, the LOAEL [4, 17] was over 400 ppm and the NEL [4, 17] was under 25 ppm. The NOAEL [4, 17] was at least 400 ppm, the LOAEL [4, 18] was over 400 ppm and the NEL [4, 18] was 25 ppm. The NOAEL [4, 18] was at least 400 ppm, the LEL ([4]; group: maternal, systemic / in life observation / food consumption / food consumption + systemic / organ weight / liver / absolute + systemic / organ weight…) was 100 ppm and the LOAEL [5, 15] was over 1000 ppm. It also gave an NOAEL [5, 15] of at least 1000 ppm, an LEL [5, 19] of 100 ppm and an NEL [5, 19] of under 100 ppm. It also gave an LOAEL [6, 20] of over 175 mg/kg/day, an NEL [6, 20] of 25 mg/kg/day and an NOAEL [6, 20] of at least 175 mg/kg/day. The LEL ([6]; group: developmental, developmental / developmental malformation / limb / [other]) was 50 mg/kg/day, the LOAEL [6, 21] was over 175 mg/kg/day and the NEL [6, 21] was 25 mg/kg/day. For the same compound, the NOAEL [6, 21] was at least 175 mg/kg/day, the LEL ([6]; group: maternal, systemic / in life observation / body weight / body weight gain) was 50 mg/kg/day and the LOAEL [7, 22] was over 500 mg/kg/day. It also gave an NEL [7, 22] of 62.5 mg/kg/day, an NOAEL [7, 22] of at least 500 mg/kg/day and an LEL [7, 23] of 125 mg/kg/day. The LOAEL [7, 24] was over 500 mg/kg/day, the NEL [7, 24] was 125 mg/kg/day and the NOAEL [7, 24] was at least 500 mg/kg/day. For the same compound, the LEL ([7]; group: maternal, reproductive / reproductive performance / postimplantation loss / postimplantation loss + systemic / in life observation / body weight / …) was 250 mg/kg/day.

Work on `CCCCOCCOC(=O)COc1ccc(Cl)cc1Cl` [2,4-D-Butotyl] yielded an LEL [8] of 145 mg/kg/day, an LOAEL [8] of 145 mg/kg/day and an NEL [8] of 22 mg/kg/day. For the same compound, the NOAEL [8] was 22 mg/kg/day, the LEL [9, 25] was 185 mg/kg/day and the LOAEL [9, 25] was 185 mg/kg/day. For the same compound, the NEL [9, 25] was 75 mg/kg/day, the NOAEL [9, 25] was 75 mg/kg/day and the LEL [9, 26] was 185 mg/kg/day. The LOAEL [9, 26] was 185 mg/kg/day, the NEL [9, 26] was 75 mg/kg/day and the NOAEL [9, 26] was 75 mg/kg/day.

`CCCCCCCCn1sccc1=O` [Octhilinone] was tested, and the LEL [10, 23] was 80 mg/kg/day, the LOAEL [10, 23] was 80 mg/kg/day and the NEL [10, 23] was 20 mg/kg/day. The NOAEL [10, 23] was 20 mg/kg/day, the LEL [10, 27] was 80 mg/kg/day and the LOAEL [10, 27] was 80 mg/kg/day. It also gave an NEL [10, 27] of 20 mg/kg/day, an NOAEL [10, 27] of 20 mg/kg/day and an LOAEL [11, 28] of 111 mg/kg/day. The NEL [11, 28] was 14 mg/kg/day, the NOAEL [11, 28] was 45 mg/kg/day and the LEL ([11]; group: offspring, systemic / organ weight / spleen / relative to body weight) was 45 mg/kg/day. For the same compound, the LOAEL ([11]; group: parental, systemic / pathology microscopic / stomach / hyperkeratosis + systemic / pathology microscopic / stomach / hyperplasia) was 96 mg/kg/day, the LEL [11, 29] was 96 mg/kg/day and the NEL [11, 29] was 43 mg/kg/day. It also gave an NOAEL [11, 29] of 43 mg/kg/day, an LEL [12, 30] of 0.73 ppm and an LOAEL [12, 30] of 0.73 ppm. For the same compound, the NOAEL [12, 30] was 0.0733 ppm and the NEL ([12]; systemic / in life observation / clinical signs / respiration (rales) + systemic / pathology microscopic / nose / [other]) was 0.0733 ppm.

Compound `CCN1CN(CC)CN(CC)C1` [1,3,5-Triethylhexahydro-s-triazine] has an LEL [13] of 10 mg/kg/day, an LOAEL [13] of 10 mg/kg/day and an NEL [13] of under 10 mg/kg/day. The NOAEL [13] was under 10 mg/kg/day, the LEL [14, 31] was 150 mg/kg/day and the LOAEL [14, 31] was 150 mg/kg/day. The NEL [14, 31] was 75 mg/kg/day, the NOAEL [14, 31] was 75 mg/kg/day and the LEL [14, 32] was 150 mg/kg/day. The LOAEL [14, 32] was 150 mg/kg/day, the NEL [14, 32] was 75 mg/kg/day and the NOAEL [14, 32] was 75 mg/kg/day.
